assay: Human HepG2 cell viability assay in 384 well format; format: toxicity, cell-based; parameters: dose 125 nL, time 70.5 hour; concentration not given beside the values; conditions: HepG2 cells, read-out: Inhibition

In order of rising cytotoxicity at 70.5 h:
1. NC(=O)C1CCN(C(=O)c2ccn(-c3cccc(F)c3)n2)C1 (stereo not drawn)  -19.8%
2. NC(=O)C1CCN(C(=O)c2ccn(-c3cccc(Cl)c3)n2)C1 (stereo not drawn)  -17.8%
3. COc1c(CNCCNC(=O)c2ccccc2F)c(C)nn1C  -15.6%
4. Cc1ncc(CN2CCCC2)c2cc(C(=O)c3ccc(Br)cc3)oc12  -14.3%
5. Cc1ccc(C(=O)NS(=O)(=O)c2cc(F)ccc2F)c(=O)[nH]1  -13.1%
6. Cc1ccc(-c2nc(C(=O)N3CCOCC3)cs2)c(C)c1  -12.3%
7. CC(C)c1nc2c(n1C)CCN(Cc1nc(-c3cccnc3)no1)C2  -11.9%
8. CN(C)C(=O)c1cccc(CN2CCN(CC(O)C(C)(C)C)CC2)c1 (stereo not drawn)  -11.5%
9. Cc1ncc2c(n1)CN(Cc1nc(Cc3ccccc3)no1)CC2  -8.87%
10. Cc1ccoc1C(=O)N1CCCC(c2cc(C(F)(F)F)[nH]n2)C1 (stereo not drawn)  -8.09%
11. O=C(c1ccc(Cn2ccccc2=O)o1)N1CCSCC1  -8.03%
12. CC(NC(=O)NCCCN1CCCC1)c1nncn1C (stereo not drawn)  -7.79%
13. O=C(CCN1CCOC1=O)Nc1cnn(-c2ccccc2Cl)c1  -7.73%
14. C1CC(c2nnc(CN3CCCC3c3noc(C4CC4)n3)o2)C1 (stereo not drawn)  -7.54%
15. Cc1ccc(C(=O)NS(=O)(=O)c2cc(Br)ccc2C)c(=O)[nH]1  -7.4%
16. Cc1cc(CN(C)CC(c2cccs2)N2CCOCC2)on1 (stereo not drawn)  -7.4%
17. CC(=O)N(Cc1ncc(C(C)C)o1)C1CCN(CCC#N)C1 (stereo not drawn)  -7%
18. C=C(Cl)CN(C)C1CCN(CCc2ccccn2)CC1  -6.31%
19. c1cnc(-c2nc(CN3CCN(CC4CC4)CC3)cs2)nc1  -5.7%
20. O=C(CCCN1CCOC1=O)Nc1cnn(-c2ccccc2Cl)c1  -5.24%
21. COc1c(CNC2CCCOc3ccc(F)cc32)c(C(C)C)nn1C (stereo not drawn)  -4.87%
22. O=C(NCc1csc(Br)c1)N1CCOCC1  -4.76%
23. COc1c(CNC2CCCOc3ccccc32)c(C(C)C)nn1C (stereo not drawn)  -4.69%
24. Cc1ccc(C)c(S(=O)(=O)NC(=O)c2ccc(C)[nH]c2=O)c1  -4.64%
25. CC(C)(C)OC(=O)N1CCN(C(=O)CCn2cccn2)CC1  -4.56%
26. CC(C)c1nc2c(n1C)CCN(Cc1nc(-c3ccoc3)no1)C2  -4.46%
27. Cc1noc(C)c1CN(C)CC(c1cccs1)N1CCOCC1 (stereo not drawn)  -4.33%
28. CCc1noc(C)c1C(=O)NCC(c1ccc(C)cc1)N(C)C (stereo not drawn)  -3.99%
29. CCc1nnc(CN2CCc3cnc(C)nc3C2)o1  -3.58%
30. CN(Cc1ccccc1C#N)C1CCN(CCc2ccccn2)CC1  -3.57%
31. CCc1nc2n(n1)CC(NCc1nc(-c3ccccn3)no1)CC2 (stereo not drawn)  -3.45%
32. Cc1nc(C)n(C2CCCN(C(=O)c3ccnc(N(C)C)c3)C2)n1 (stereo not drawn)  -3.3%
33. O=C(Nc1ccc(CCN2CCOCC2)cc1)C1CCC1  -3.21%
34. NC(=O)C1CCN(CCc2ccc(NC(=O)C3CC3)cc2)CC1  -3.12%
35. O=C(CCCNc1ncccn1)Nc1cc(C(F)(F)F)c[nH]c1=O  -2.93%
36. COc1cc(C(=O)N2CCCC2c2noc(C(C)C)n2)on1 (stereo not drawn)  -2.66%
37. CCS(=O)(=O)c1ccccc1N1CCC(NC2CCCC2)CC1  -2.15%
38. COc1cc(CNCC(O)c2ccc(C)cc2)cc2c1OCO2 (stereo not drawn)  -2.01%
39. COc1ccc(CCNC(=O)CN2CCCC2c2noc(C)n2)cc1 (stereo not drawn)  -1.93%
40. CCOc1cc(C)nc(N2CCN(C(=O)C(C)NC(C)=O)CC2)n1 (stereo not drawn)  -1.89%
41. O=C(CCc1cccc(Cl)c1Cl)N1CCOCC1c1ncon1 (stereo not drawn)  -1.88%
42. N#Cc1cccc(CN2CCCC2Cn2cccn2)c1 (stereo not drawn)  -1.88%
43. CCc1ncc2c(n1)CN(Cc1nnc(Cc3ccccc3)o1)CC2  -1.62%
44. Cc1nc(CN2CCCC(N(C)CC3CCCC3)C2)no1 (stereo not drawn)  0.0887%
45. c1ccc(Cc2nnc(CN3CCc4cncnc4C3)o2)cc1  1.25%
46. COc1cc(CNCC(O)c2cccc(F)c2)cc2c1OCO2 (stereo not drawn)  1.4%
47. CC(=O)N(Cc1ncc(C)o1)C1CCN(Cc2nccn2C)C1 (stereo not drawn)  2.28%
48. CCN1CCN(CCCNC(=O)NC(C)c2nncn2C)CC1 (stereo not drawn)  2.39%
49. CCOC(=O)c1sc2ccsc2c1CNC(=O)C(C)OC (stereo not drawn)  3.36%
50. COc1cc(CNCC(O)c2ccc(F)cc2F)cc2c1OCO2 (stereo not drawn)  4.59%
51. Cc1cnn(CC2CCCN2c2ncnc3ccsc23)c1 (stereo not drawn)  5.5%
52. Cc1nc(C)c(C(=O)NCCNC(=O)Cc2ccc(F)cc2)s1  10.7%
53. COCCCN(C)C1CCCN(Cc2noc(C3CC3)n2)C1 (stereo not drawn)  11.8%
54. CCOCCN1CCN(CCCS(C)(=O)=O)CC1C (stereo not drawn)  11.8%
55. CN(C)CC1CN(Cc2nnc(C(C)(C)C)o2)CCO1 (stereo not drawn)  11.9%
56. CCOC(=O)c1sc2ccsc2c1CNC(=O)CCOC  16.3%
57. COc1ccccc1CC(=O)N1CCC(NCc2ccccn2)CC1  21%
58. CCc1ccccc1OCC(=O)N1CCOCC1c1ncon1 (stereo not drawn)  28.4%

Reference: ChEMBL document CHEMBL3507680, “University of Dundee, Gates Library screen for HepG2 cell viability”
